Assay results reported in ChEMBL document CHEMBL4831541, “Antibiotic Conjugates with an Artificial MECAM-Based Siderophore Are Potent Agents against Gram-Positive and Gram-Negative Bacterial Pathogens” (2021).
In brackets after ≈: the same amount, converted by molar mass. Activity calls are given as the source filed them. No cut-off for these calls is given here.

Tests used:
Escherichia coli [1] = experiment: Antibacterial activity against Escherichia coli BW25113 assessed as growth inhibition by measuring minimal concentration at OD600 by visual inspection with iron-limited media incubated for 24 hrs; type: functional
Enterococcus faecium = experiment: Antibacterial activity against Enterococcus faecium DSM20477 assessed as growth inhibition by measuring minimal concentration at OD600 by visual inspection with iron-limited media incubated for 24 hrs; type: functional
Staphylococcus aureus = experiment: Antibacterial activity against Staphylococcus aureus DSM11822 assessed as growth inhibition by measuring minimal concentration at OD600 by visual inspection with iron-limited media incubated for 24 hrs; type: functional
Escherichia coli [2] = experiment: Antibacterial activity against Escherichia coli K-12 BW25113 assessed as growth inhibition after 21 serial passages by measuring minimal concentration at OD600 by visual inspection with iron-limited media incubated for 24 hrs; type: functional
Acinetobacter baumannii = experiment: Antibacterial activity against Acinetobacter baumannii DSM30007 assessed as growth inhibition by measuring minimal concentration at OD600 by visual inspection with iron-limited media incubated for 24 hrs; type: functional
Escherichia coli [3] = experiment: Antibacterial activity against Escherichia coli delta cirA assessed as growth inhibition by measuring minimal concentration at OD600 by visual inspection with iron-limited media incubated for 24 hrs; type: functional
Escherichia coli [4] = experiment: Antibacterial activity against Escherichia coli K-12 BW25113 delta cyoB assessed as growth inhibition by measuring minimal concentration at OD600 by visual inspection with iron-limited media incubated for 24 hrs; type: functional
Escherichia coli [5] = experiment: Antibacterial activity against Escherichia coli delta cirA delta fiu assessed as growth inhibition by measuring minimal concentration at OD600 by visual inspection with iron-limited media incubated for 24 hrs; type: functional
Escherichia coli [6] = experiment: Antibacterial activity against Escherichia coli K-12 BW25113 delta exbB assessed as growth inhibition by measuring minimal concentration at OD600 by visual inspection measured after reintroduction of plasmid expressing exbB Q163 mutant with iron-limited media incubated for 24 hrs; type: functional
Escherichia coli [7] = experiment: Antibacterial activity against Escherichia coli delta fiu assessed as growth inhibition by measuring minimal concentration at OD600 by visual inspection with iron-limited media incubated for 24 hrs; type: functional
Pseudomonas aeruginosa = experiment: Antibacterial activity against Pseudomonas aeruginosa DSM24068 assessed as growth inhibition by measuring minimal concentration at OD600 by visual inspection with iron-limited media incubated for 24 hrs; type: functional, organism-based
Escherichia coli [8] = experiment: Antibacterial activity against Escherichia coli K-12 BW25113 delta cyoB assessed as growth inhibition by measuring minimal concentration at OD600 measured after reintroduction of plasmid expressing cyoB G269D mutant by visual inspection with iron-limited media incubated for 24 hrs; type: functional
Escherichia coli [9] = experiment: Antibacterial activity against Escherichia coli K-12 BW25113 delta exbB assessed as growth inhibition by measuring minimal concentration at OD600 by visual inspection measured after reintroduction of plasmid expressing full length exbB with iron-limited media incubated for 24 hrs; type: functional
Escherichia coli [10] = experiment: Antibacterial activity against Escherichia coli delta […] delta fiu assessed as growth inhibition by measuring minimal concentration at OD600 by visual inspection with iron-limited media incubated for 24 hrs; type: functional
Escherichia coli [11] = experiment: Antibacterial activity against Escherichia coli delta exbB assessed as growth inhibition by measuring minimal concentration at OD600 by visual inspection with iron-limited media incubated for 24 hrs; type: functional
Escherichia coli [12] = experiment: Antibacterial activity against Escherichia coli delta fepA assessed as growth inhibition by measuring minimal concentration at OD600 by visual inspection with iron-limited media incubated for 24 hrs; type: functional
Escherichia coli [13] = experiment: Antibacterial activity against Escherichia coli delta tonB assessed as growth inhibition by measuring minimal concentration at OD600 by visual inspection with iron-limited media incubated for 24 hrs; type: functional
Escherichia coli [14] = experiment: Antibacterial activity against wild type Escherichia coli BW25113 assessed as growth inhibition by measuring minimal concentration at OD600 by visual inspection with iron-limited media incubated for 24 hrs; type: functional
Escherichia coli [15] = experiment: Antibacterial activity against Escherichia coli delta fepA delta cirA assessed as growth inhibition by measuring minimal concentration at OD600 by visual inspection with iron-limited media incubated for 24 hrs; type: functional
Escherichia coli [16] = experiment: Antibacterial activity against Escherichia coli delta fepB assessed as growth inhibition by measuring minimal concentration at OD600 by visual inspection with iron-limited media incubated for 24 hrs; type: functional
Klebsiella pneumoniae = experiment: Antibacterial activity against Klebsiella pneumoniae DSM11678 assessed as growth inhibition by measuring minimal concentration at OD600 by visual inspection with iron-limited media incubated for 24 hrs; type: functional, organism-based
Escherichia coli [17] = experiment: Antibacterial activity against Escherichia coli delta fepA delta cirA delta fiu assessed as growth inhibition by measuring minimal concentration at OD600 by visual inspection with iron-limited media incubated for 24 hrs; type: functional
Escherichia coli [18] = experiment: Antibacterial activity against Escherichia coli delta fepD assessed as growth inhibition by measuring minimal concentration at OD600 by visual inspection with iron-limited media incubated for 24 hrs; type: functional
Escherichia coli [19] = experiment: Recovery of growth in Escherichia coli BW25113 delta entA assessed as reversal of growth at 10 uM in presence of 0.1 uM iron(III) chloride hexahydrate by growth recovery assay; type: functional, organism-based
Escherichia coli [20] = experiment: Recovery of growth in Escherichia coli BW25113 delta entA delta fepA double knock out assessed as reversal of growth at 10 uM in presence of 0.1 uM iron(III) chloride hexahydrate by growth recovery assay; type: functional, organism-based
Escherichia coli [21] = experiment: Recovery of growth in Escherichia coli BW25113 delta entA delta fepA double knock out assessed as reversal of growth at 10 uM in presence of 0.1 uM iron(III) chloride hexahydrate measured after reintroduction of plasmid expressing full length FepA by growth recovery assay; type: functional, organism-based
Escherichia coli [22] = experiment: Drug uptake in Escherichia coli BW25113 delta entA assessed in peri-plasmic fraction pre-treated at 10 uM in presence of 0.1 uM iron(III) chloride hexahydrate by mass spectrometry based cell fractionation assay; type: functional, organism-based
Escherichia coli [23] = experiment: Drug uptake in Escherichia coli BW25113 delta entA assessed in membrane fraction pre-treated at 10 uM in presence of 0.1 uM iron(III) chloride hexahydrate by mass spectrometry based cell fractionation assay; type: functional, organism-based
Escherichia coli [24] = experiment: Drug uptake in Escherichia coli BW25113 delta entA assessed in cytoplasmic fraction pre-treated at 10 uM in presence of 0.1 uM iron(III) chloride hexahydrate by mass spectrometry based cell fractionation assay; type: functional, organism-based
[25] = Metal chelating activity assessed as Fe3+-compound complex formation measured after 17 hrs by chrome azurol S dye based colorimetric assay

CC(=O)Oc1cccc(C(=O)NCc2cc(CNC(=O)c3cccc(OC(C)=O)c3OC(C)=O)c(NC(=O)CCCc3cn(CCC(=O)N[C@@H](C(=O)N[C@@H]4C(=O)N5[C@@H]4SC(C)(C)[C@@H]5C(=O)O)c4ccccc4)nn3)c(CNC(=O)c3cccc(OC(C)=O)c3OC(C)=O)c2)c1OC(C)=O
MIC (Escherichia coli [1]): ≤ 0.09 µM
MIC (Enterococcus faecium): 0.62 µM (≈ 0.856 µg/mL)
MIC (Staphylococcus aureus): 0.12 µM (≈ 0.166 µg/mL)
MIC (Escherichia coli [2]): > 12 µM
MIC (Acinetobacter baumannii): ≤ 0.09 µM
MIC (Escherichia coli [3]): 2.9 µM (≈ 4.01 µg/mL)
MIC (Escherichia coli [4]): 2.9 µM (≈ 4.01 µg/mL)
MIC (Escherichia coli [5]): 2.9 µM (≈ 4.01 µg/mL)
MIC (Escherichia coli [6]): > 12 µM
MIC (Escherichia coli [7]): 1.5 µM (≈ 2.07 µg/mL)
Activity (Pseudomonas aeruginosa): inactive
MIC (Escherichia coli [8]): 2.9 µM (≈ 4.01 µg/mL)
MIC (Escherichia coli [9]): 2.9 µM (≈ 4.01 µg/mL)
MIC (Escherichia coli [10]): 1.5 µM (≈ 2.07 µg/mL)
MIC (Escherichia coli [11]): > 12 µM
MIC (Escherichia coli [12]): 2.9 µM (≈ 4.01 µg/mL)
MIC (Escherichia coli [13]): > 12 µM
Activity (Escherichia coli [14]): inactive
MIC (Escherichia coli [15]): 1.5 µM (≈ 2.07 µg/mL)
MIC (Escherichia coli [16]): 2.9 µM (≈ 4.01 µg/mL)
Activity (Klebsiella pneumoniae): inactive
MIC (Escherichia coli [17]): > 12 µM
MIC (Escherichia coli [18]): 1.5 µM (≈ 2.07 µg/mL)

CC1(C)S[C@@H]2[C@H](NC(=O)[C@H](N)c3ccccc3)C(=O)N2[C@H]1C(=O)O [AMPICILLIN]
MIC (Escherichia coli [1]): 19 µM (≈ 6.64 µg/mL)
MIC (Enterococcus faecium): 2.7 µM (≈ 0.943 µg/mL)
MIC (Staphylococcus aureus): > 183 µM
MIC (Acinetobacter baumannii): > 183 µM
MIC (Escherichia coli [3]): 46 µM (≈ 16.1 µg/mL)
MIC (Escherichia coli [5]): 46 µM (≈ 16.1 µg/mL)
MIC (Escherichia coli [7]): 46 µM (≈ 16.1 µg/mL)
MIC (Escherichia coli [10]): 46 µM (≈ 16.1 µg/mL)
MIC (Escherichia coli [11]): 46 µM (≈ 16.1 µg/mL)
MIC (Escherichia coli [12]): 46 µM (≈ 16.1 µg/mL)
MIC (Escherichia coli [13]): 46 µM (≈ 16.1 µg/mL)
MIC (Escherichia coli [14]): 46 µM (≈ 16.1 µg/mL)
MIC (Escherichia coli [15]): 46 µM (≈ 16.1 µg/mL)
MIC (Escherichia coli [16]): 46 µM (≈ 16.1 µg/mL)
MIC (Escherichia coli [17]): 46 µM (≈ 16.1 µg/mL)
MIC (Escherichia coli [18]): 46 µM (≈ 16.1 µg/mL)

CC(=O)Oc1cccc(C(=O)NCc2cc(CNC(=O)c3cccc(OC(C)=O)c3OC(C)=O)c(CNC(=O)c3cccc(OC(C)=O)c3OC(C)=O)c([N+](=O)[O-])c2)c1OC(C)=O
Activity (Escherichia coli [19]): Active

CC1(C)S[C@@H]2[C@H](NC(=O)[C@H](N)c3ccc(O)cc3)C(=O)N2[C@H]1C(=O)O [AMOXICILLIN]
MIC (Escherichia coli [1]): 18 µM (≈ 6.58 µg/mL)
MIC (Enterococcus faecium): 1.3 µM (≈ 0.475 µg/mL)
MIC (Staphylococcus aureus): > 175 µM
MIC (Acinetobacter baumannii): > 175 µM

CC(=O)Oc1cccc(C(=O)NCc2cc(CNC(=O)c3cccc(OC(C)=O)c3OC(C)=O)c([N+](=O)[O-])c(CNC(=O)c3cccc(OC(C)=O)c3OC(C)=O)c2)c1OC(C)=O
Activity (Escherichia coli [20]): inactive
Activity (Escherichia coli [19]): Active
Activity (Escherichia coli [21]): Active

CC(=O)Oc1cccc(C(=O)NCc2cc(CNC(=O)c3cccc(OC(C)=O)c3OC(C)=O)c(NC(=O)CCCc3cn(CCC(=O)N[C@@H](C(=O)N[C@@H]4C(=O)N5[C@@H]4SC(C)(C)[C@@H]5C(=O)O)c4ccc(O)cc4)nn3)c(CNC(=O)c3cccc(OC(C)=O)c3OC(C)=O)c2)c1OC(C)=O
MIC (Escherichia coli [1]): 1.4 µM (≈ 1.96 µg/mL)
MIC (Enterococcus faecium): > 46 µM
MIC (Staphylococcus aureus): > 46 µM
MIC (Acinetobacter baumannii): 46 µM (≈ 64.3 µg/mL)
Activity (Pseudomonas aeruginosa): inactive
Activity (Klebsiella pneumoniae): inactive

O=C(NCc1cc(CNC(=O)c2cccc(O)c2O)c([N+](=O)[O-])c(CNC(=O)c2cccc(O)c2O)c1)c1cccc(O)c1O
Drug uptake (Escherichia coli [22]): Active
Drug uptake (Escherichia coli [23]): Active
Activity (Escherichia coli [19]): Active
Drug uptake (Escherichia coli [24]): inactive
Activity [25]: Active

CC(=O)Oc1cccc(C(=O)NCc2cc(CNC(=O)c3cccc(OC(C)=O)c3OC(C)=O)cc(CNC(=O)c3cccc(OC(C)=O)c3OC(C)=O)c2)c1OC(C)=O
Activity (Escherichia coli [19]): Active
